The source of these data is patent US4343795A, “Biologically active amides” (priority 1977, dated 1982).

Structures can show the parent of a compound that is named as a salt. Non-standard residues stand in square brackets, D forms with d. Residues, ends and D or L forms follow the SMILES beside them. Phe(4-NO2) = N[C@@H](Cc1ccc([N+](=O)[O-])cc1)C(=O)O

The test system of test [1] is laboratory animals including rats and mice. Kind of test: Induction of anaesthesia / abolition of the righting reflex in laboratory animals. The note with it: laboratory animals such as mice, up to lethal doses.
A further test relates to rat. Nature of the test: Antidiarrhoeal activity in the rat (castor oil). Particulars: for ANTIDARRHOEA ED50 s.c. / ANTIDARRHOEA ED50 p.o.: castor oil 15 minutes after peptide. The format is in vivo. The procedure:
(B) Antidiarrhoeal activity in the rat. In this procedure rats were starved for 24 hours, the peptide then administered either subcutaneously or orally followed after 15 minutes by 1 ml. castor oil per rat given orally.
(§1) From the data obtained the respective ED50 figures were calculated (i.e. the dose required to elicit the appropriate effect in 50% of the animals). N.T.: not tested.

The subject of test [2] is mice. Nature of the test: Analgesia in mice in the hot plate test. Particulars: i.c.v. Format: in vivo. Here is the method:
(A) Analgesia in mice in the hot plate test (modification of the method of Eddy, N. B. et al., J. Pharm. Exp. Therap. (1953) 107, 385, the peptide being administered by intracerebroventricular injection).
as §1
(In general: In hot-plate and tail-flick tests a longer latency is read as antinociception.)

In the next test the test system is guinea-pigs. Kind of test: Anti-tussive testing, citric acid aerosol in guinea-pigs. Format: in vivo. Particulars: guinea-pig; for ANTITUSSIVE ED50 p.o.: 20% citric acid aerosol 30 minutes after compound. Here is the method: J. Pharmacol., 39, (1970) 225.
(C) For anti-tussive testing, guinea-pigs are subjected to an aerosol containing 20% citric acid, 30 minutes after administration of compound (orally or subcutaneously). The number of coughs during a five minute exposure are counted and meaned for six animals per treatment. The method is that described by Boura, A. L. A., Green, A. F. and Saunders, I. A. Br. J. Pharmac., May 1970, Vol. 39, No. 1, page 225.
as §1

For test [3], the system named is mice. Nature of the test: Analgesia in mice in the writhing test. Format: in vivo. The note with it: mouse, p.o.
From the text: As a further example the compounds are effective in reducing acetic acid-induced writhing in mice when tested by a modification of the method of Henderson et. al., J. Pharm. Exp. Therap. 125 (1959), 237; the compounds being administered orally and this reduction in writhing is abolished by naloxone.
(D) Analgesia in mice in the writhing test (modification of the method of Henderson et. al. (J. Pharm. Exp. Therap., 125,(1959),237) the peptide being administered orally.
as §1
For orientation: An intraperitoneal irritant provokes the stretching counted in writhing tests.

Turning to `CN1CC[C@]23c4c5ccc(O)c4O[C@H]2[C@@H](O)C=C[C@H]3[C@H]1C5` [morphine], the “Abolition of the righting reflex” value in test [1] is “does not abolish the righting reflex”.

On to `CSCC[C@@H](NC(=O)[C@@H](N)Cc1ccc(O)cc1)C(=O)NCC(=O)N[C@@H](Cc1ccc([N+](=O)[O-])cc1)C(=O)N1CCC[C@H]1C(=O)O` [Example 4, H.Tyr.D-Met.Gly.Phe(4NO2).Pro.OH HCl] (H-Y[dM]G[Phe(4-NO2)]P-OH), for which, in the test with rat (at 10 mg/kg p.o.), the “ANTIDARRHOEA p.o. (ED50 column): activity at 10” value is reported as “None”. Further, the “ANTIDARRHOEA ED50 s.c.” value in the test with rat was 0.2 mg/kg. Also, the “ANALGESIA: MOUSE HOT PLATE ED50” value in the test on mice [2] was found to be 0.07 μg/mouse.

`CSCC[C@@H](NC(=O)[C@@H](N)Cc1ccc(O)cc1)C(=O)NCC(=O)N[C@@H](Cc1ccccc1)C(=O)N1CCC[C@@H]1C(=O)O` [Example 3, H.Tyr.D-Met.Gly.Phe.D-Pro.OH HCl] (H-Y[dM]GF[dP]-OH): in the test on rat, the “ANTIDARRHOEA ED50 p.o.” value is 7 mg/kg and the “ANTIDARRHOEA ED50 s.c.” value is listed as 2 mg/kg. The “ANALGESIA: MOUSE HOT PLATE ED50” value in the test on mice [2] was 0.005 μg/mouse. The “ANTITUSSIVE (ED50 column): activity at 10 p.o.” value in the test with guinea-pigs (at 10 mg/kg p.o.) is listed as “None”.

For the compound `CSCC[C@@H](NC(=O)[C@@H](N)Cc1ccc(O)cc1)C(=O)NCC(=O)N[C@@H](Cc1ccc([N+](=O)[O-])cc1)C(=O)N1CCC[C@H]1C(N)=O` [Example 1, H.Tyr.D-Met.Gly.Phe(4NO2).Pro.NH2] (H-Y[dM]G[Phe(4-NO2)]P-NH2), in the test with rat, the “ANTIDARRHOEA ED50 p.o.” value was determined as 2 mg/kg and the “ANTIDARRHOEA ED50 s.c.” value was 0.05 mg/kg. In addition, in the test with mice [2], the “ANALGESIA: MOUSE HOT PLATE ED50” value is given as 0.007 μg/mouse. In the test on mice [3], the “ANALGESIA: WRITHING ED50” value was determined as 35 mg/kg. Besides, the “ANTITUSSIVE ED50 p.o.” value with guinea-pigs was found to be 0.7 mg/kg.

As for “Tyr.D-Met.Gly.Phe(4NO2).homoPro.NH2 [Example 21]”, in the test on rat, the “ANTIDARRHOEA ED50 p.o.” value is given as 2 mg/kg and the “ANTIDARRHOEA ED50 s.c.” value was determined as 0.03 mg/kg. In addition, the “ANALGESIA: MOUSE HOT PLATE ED50” value in the test on mice [2] is 0.003 μg/mouse.

With “H.Tyr.D-Met.Gly.Phe(4Cl).Pro.NH2 [Example 9]”, in the test on rat, the “ANTIDARRHOEA ED50 p.o.” value is recorded as 10 mg/kg and the “ANTIDARRHOEA ED50 s.c.” value came to 0.2 mg/kg. For the same compound, in the test with mice [2], the “ANALGESIA: MOUSE HOT PLATE ED50” value worked out at 0.005 μg/mouse.

In the case of “H.Tyr.D-Met(O2).Gly.Phe(4NO2).Pro.NH2 [Example 7]”, in the test with rat, the “ANTIDARRHOEA ED50 p.o.” value worked out at 0.3 mg/kg and the “ANTIDARRHOEA ED50 s.c.” value is listed as 0.05 mg/kg. For the same compound, the “ANALGESIA: MOUSE HOT PLATE ED50” value with mice [2] is recorded as 0.00008 μg/mouse. Moreover, the “ANTITUSSIVE ED50 p.o.” value in the test with guinea-pigs amounted to 3 mg/kg.
